The text below walks through data of patent US12590103B2, “Polymorph of EP4 receptor antagonist, preparation method therefor and use thereof” (SHANGHAI YUYAO BIOTECH LTD., priority 2020, dated 2026).

Common to all, as to assay type: physicochemical
The nature of data set [1]: Volatilization at room temperature, sample checked by 1H NMR. As to conditions: volatilized at room temperature in THF, MeOH-THF and THF-water. The protocol:
The structure of the solid sample and the solvent contained in the sample were confirmed by ^1H NMR. The instrument used for ^1H NMR analysis is Bruker Advance 300 equipped with B-ACS 120 automatic sampling system.
Single solvent volatilization: an appropriate amount of initial raw materials of compound I was dissolved in the solvents shown in 1-6 in Table 8 to prepare a solution with a concentration of 8 to 20 mg/mL. The obtained solution was filtered, the filtrate was volatilized at room temperature, and the obtained solid was characterized by XRPD.
Binary solvent volatilization: an appropriate amount of initial raw materials of compound I was dissolved in the solvents shown in 7-25 of Table 8 to prepare a solution with a concentration of 10 mg/mL. After filtration, the resulting filtrate was then mixed with solvent −2; then volatilized at room temperature. A total of 19 solvent systems were used to carry out the volatilization experiment of binary solvent, and the obtained solid was characterized by XRPD.

A short description of data set [2]: Dynamic water vapor adsorption (DVS). The protocol: The instrument model used for dynamic moisture absorption and desorption analysis is IGA Sorp(Hidentity Isochema). The sample measurement adopts gradient mode, the relative humidity range of the test is 0% to 90%, and the humidity increment of each gradient is 10%. The specific parameters are as follows: • Sample temperature: 25° C. • Temperature stability: 0.1° C./min • Flow rate: 250 mL/min • Scan: 2 • Model: F1 • Minimum time: 30 min • Maximum time: 120 min • Waiting cap: 98% • Start: Adsorption Scan • Adsorption humidity (%):0, 10, 20, 30, 40, 50, 60, 70, 80, 90; • Desorption humidity (%):80, 70, 60, 50, 40, 30, 20, 10, 0.
The initial raw material of Compound I was slurried in acetone for 4 hours, filtered and the resulting solid was characterized by XRPD, PLM, TGA, DSC and DVS.

Data set [3] is described as follows: Stability determination at 25° C./92.5% RH (XRPD). Conditions: 25° C./92.5% RH for 9 days. The protocol:
(§1) The solid samples obtained from the experiment were analyzed by D8 advance powder X-ray diffraction analyzer (Bruker). The instrument is equipped with a LynxEye detector, and the ray species is Cu Kα (λ=1.54184 Å). The 2θ scanning range of the sample is from 3° to 40°, and the scanning step is 0.02°. When measuring the sample, the light tube voltage and light tube current were 40 KV and 40 mA respectively.

A short description of data set [4]: Suspension crystal transformation experiment of Polymorphic Form I and Polymorphic Form II. As to conditions: concluded from suspension crystal transformation at RT and 50° C. Here is the method: Suspension crystal transformation experiments were carried out on Polymorph I and polymorph II at room temperature and 50° C. respectively (Table 13). The resulting solid was characterized by XRPD.

Data set [5] in a line: DSC heat treatment (heating-cooling-heating cycle) with XRPD. Conditions: RT to 260° C., to −30° C., to 300° C. Here is the method:
The DSC heating-cooling-heating cycle was used to try to find a crystal form with a higher melting point.
During the cooling process, there is an obvious exothermic peak. The initial temperature of the exothermic peak is 206.8° C., which should be caused by crystal transformation. XRPD characterization was performed on three different positions during DSC treatment.

The nature of data set [6]: XRPD characterization after heating (thermal crystal transformation). Here is the method: as §1

Turning to `C[C@H](NC(=O)c1c(Cc2ccc(F)cc2)sc2c1CCOC2)c1ccc(C(=O)O)cc1` [compound I, (S)-4-(1-(2-(4-fluorobenzyl)-4,7-dihydro-5H-thieno [2,3-c]pyran-3-carboxamido)ethyl) benzoic acid], the “chemical stability of the sample (1H NMR)” value in data set [1] is recorded as “degraded”.

As to `C[C@H](NC(=O)c1c(Cc2ccc(F)cc2)sc2c1CCOC2)c1ccc(C(=O)O)cc1` [polymorphic Form I, (S)-4-(1-(2-(4-fluorobenzyl)-4,7-dihydro-5H-thieno [2,3-c]pyran-3-carboxamido)ethyl) benzoic acid], the “polymorph of the sample before and after moisture absorption” value in data set [2] (DVS 0% to 90% RH) is given as “does not change”. In data set [2] (at 80% RH, 25° C.), the “moisture absorbed (DVS)” value is recorded as < 2%. Besides, the “crystal form by XRPD after storage in high humidity” value in data set [3] was “remain unchanged”. The “thermodynamic stability of the crystal form” value in data set [4] is recorded as “thermodynamically stable crystal form”. Also, the “crystal form by XRPD at positions 1, 2 and 3 of the DSC treatment” value in data set [5] is “all polymorphic Form I”.

For `C[C@H](NC(=O)c1c(Cc2ccc(F)cc2)sc2c1CCOC2)c1ccc(C(=O)O)cc1` [polymorphic Form II, (S)-4-(1-(2-(4-fluorobenzyl)-4,7-dihydro-5H-thieno [2,3-c]pyran-3-carboxamido)ethyl) benzoic acid], in data set [6] (heated to 200° C.), the “crystal form by XRPD after heating” value is recorded as “transformed into polymorphic Form I”.

As for `C[C@H](NC(=O)c1c(Cc2ccc(F)cc2)sc2c1CCOC2)c1ccc(C(=O)O)cc1` [polymorphic Form III, (S)-4-(1-(2-(4-fluorobenzyl)-4,7-dihydro-5H-thieno [2,3-c]pyran-3-carboxamido)ethyl) benzoic acid], the “crystal form by XRPD after heating” value in data set [6] (heated to 240° C.) is recorded as “transformed into polymorphic Form I”.

For `C[C@H](NC(=O)c1c(Cc2ccc(F)cc2)sc2c1CCOC2)c1ccc(C(=O)O)cc1` [polymorphic Form IV, (S)-4-(1-(2-(4-fluorobenzyl)-4,7-dihydro-5H-thieno [2,3-c]pyran-3-carboxamido)ethyl) benzoic acid], the “crystal form by XRPD after heating” value in data set [6] (heated to 200° C.) is “transformed into polymorphic Form I”.

In the case of `C[C@H](NC(=O)c1c(Cc2ccc(F)cc2)sc2c1CCOC2)c1ccc(C(=O)O)cc1` [polymorphic Form V, (S)-4-(1-(2-(4-fluorobenzyl)-4,7-dihydro-5H-thieno [2,3-c]pyran-3-carboxamido)ethyl) benzoic acid], in data set [6] (heated to 200° C.), the “crystal form by XRPD after heating” value is “converted into the polymorphic Form I”.

As for `C[C@H](NC(=O)c1c(Cc2ccc(F)cc2)sc2c1CCOC2)c1ccc(C(=O)O)cc1` [polymorphic Form VI, (S)-4-(1-(2-(4-fluorobenzyl)-4,7-dihydro-5H-thieno [2,3-c]pyran-3-carboxamido)ethyl) benzoic acid], the “crystal form by XRPD after heating” value in data set [6] (heated to about 236° C.) is listed as “transformed into polymorphic Form I”.
